Assay results as given in patent publication US20130084335A1, “IVABRADINE-CONTAINING PHARMACEUTICAL COMPOSITION” (ratiopharm GmbH, priority 2010, published 2013).

What was measured:
[1] = Stability at different temperatures and humidities in open or closed containers (polymorphic form); format: physicochemical; settings: for Stability, summary in words: various conditions, phase transition in particular in open containers
Experimental: XRD samples were analysed on a Bruker-AXS D8 Advance powder X-Ray diffractometer. The measurement conditions were as follows: • Measurement in Bragg-Brentano-Geometry on vertical goniometer (reflection, theta/theta, 435 mm measurement circle diameter) • with sample rotation (30 rpm) on 9 position sample stage • Radiation: Cu Kα1 (1.5406 Å), Tube (Siemens FLCu2K), power 40 kV/40 mA • Detector: position sensitive detector VANTEC-1 • 3° capture angle (2theta), • Anti scatter slit 6.17 mm • Detector slit 10.39 mm • 4° soller slit, • primary beam stop (<2° 2theta) • Monochromator: None • Second β filter: Ni filter 0.1 mm (0.5%) • Start angle: 2° • End Angle: 55° • Measurement time: 11 min • Step: 0.016° 2Theta • Software: EVA (Bruker-AXS, Karlsruhe).
The stability of ivabradine adipate in comparison to ivabradine hydrochloride form I was investigated at different temperatures and humidities in open or closed containers for different storage times.

[2] = Particle size by laser diffractometry; format: physicochemical
Experimental: The term “particle size” according to the present invention relates to the maximum diameter of the equivalent product assuming spherical opaque particles showing the same light scattering pattern and the same diffraction as the active substance particles. According to the invention the particle size is determined by means of laser light diffraction. The determination of the size distribution results from the analysis of the diffraction pattern that is obtained if particles are exposed to a monochromatic light beam. The particles refract the light with small particles refracting the light in a greater angle than large particles. The refracted light is measured by a number of photo detectors arranged in different angles. On the other hand, the light spectra of the […] have to be recorded by light-sensitive detectors in greater angles over the laser beam. Large particles result in greater intensity maxima with small angles, small particles to weaker intensity maxima with greater angles. Thus, in the laser light diffraction the pattern resulting from the interaction of the light with the particles is used for the determination of the particle size.
According to the invention the particle size is determined by means of laser diffractometry. For that, a Mastersizer 2000 by Malvern Instruments having the corresponding sample dispersing unit Hydro S is used. The wet measurement (2500 rpm, ultrasound 10-20 min., shading 5 to 20%) takes place in a dispersion of sunflower oil with the particle spacing in the dispersion being about 3-5 times greater than the particle diameter.
Moreover, the Mie theory defines the secondary scattering caused by the refraction of the light on small particles, as in the international rules of the laser diffraction measurement. (ISO 13320)
The determination of the particle size for particles D50 smaller than 5.0 μm is carried out according to the Mie method and for particles D50 greater than 5.0 μm according to the Fraunhofer method.

## COc1cc2c(cc1OC)CC(=O)N(CCCN(C)C[C@H]1Cc3cc(OC)c(OC)cc31)CC2.Cl [Ivabradine HCl form I]
[1]; 25° C./60%, closed, 33 d
  Stability (crystal form after storage): unchanged
[1]; 25° C./60%, open, 33 d
  Stability (crystal form after storage): β +
[1]; 30° C./65%, closed, 33 d
  Stability (crystal form after storage): unchanged
[1]; 30° C./65%, open, 33 d
  Stability (crystal form after storage): β
[1]; 40° C./75%, closed, 33 d
  Stability (crystal form after storage): unchanged
[1]; 40° C./75%, open, 33 d
  Stability (crystal form after storage): β
[1]
  Stability, summary in words: undergoes phase transition into ivabradine HCl, form beta, or form d
[2]
  Particle size D50: 19.10 μm
  Particle size D90: 44.11 μm

## COc1cc2c(cc1OC)CC(=O)N(CCCN(C)C[C@H]1Cc3cc(OC)c(OC)cc31)CC2.O=C(O)CCCCC(=O)O [Ivabradine adipate]
[1]; 25° C./60%, closed, 57 d
  Stability (crystal form after storage): unchanged
[1]; 25° C./60%, open, 57 d
  Stability (crystal form after storage): unchanged
[1]; 30° C./65%, closed, 57 d
  Stability (crystal form after storage): unchanged
[1]; 30° C./65%, open, 57 d
  Stability (crystal form after storage): unchanged
[1]; 40° C./75%, closed, 57 d
  Stability (crystal form after storage): unchanged
[1]; 40° C./75%, open, 57 d
  Stability (crystal form after storage): unchanged
[1]
  Stability, summary in words: stable at various conditions
[2]
  Particle size D50: 18.35 μm
  Particle size D90: 52.71 μm
